Laboratory results: PMC8081377 (Mutagenesis, 2021)
Where a name gives a salt, the structure may show the parent alone. Read-outs that look alike come from different tables or passages of the source.

Key:
[1] = tested on: EpiDerm™ EPI-200-MNA skin tissues
[2] = tested on: EpiDerm™ EPI-200-MNA skin tissues; remark: listed apart in the source
[3] = lack of excessive cytotoxicity, 48-h protocol
[4] = two treatments, vs solvent control
[5] = three treatments, vs solvent control
[6] = % VCC or % BN, lab(s) as stated in the text

CCC(=O)OCC(=O)[C@@]1(OC(=O)CC)[C@@H](C)C[C@H]2[C@@H]3CCC4=CC(=O)C=C[C@]4(C)[C@@]3(Cl)[C@@H](O)C[C@@]21C [Beclomethasone dipropionate]
maximum dose tested without exceeding the cytotoxicity thresholds [1, 3]: 1600 µg/cm^2 | classification in the RSMN assay by Lab B ([2]; overall call): negative | % MN-BN response in individual experiment(s), Lab B, 48-h protocol [2, 4]: no significant increases

Cc1cn([C@H]2C[C@H](N=[N+]=[N-])[C@@H](CO)O2)c(=O)[nH]c1=O [Azidothymidine (AZT), Azidothymidine]
top/maximum dose tested, limited by excessive or strong cytotoxicity ([1]; human): 700 µg/cm^2 | classification in the RSMN assay by Lab A ([2]; overall call): positive | % MN-BN response in individual experiment(s), Lab A, 72-h protocol [2, 5]: significant increases | % MN-BN response in individual experiment(s), Lab A, 48-h protocol [2, 4]: significant increase

CCCCNC(=O)NS(=O)(=O)c1ccc(C)cc1 [Tolbutamide]
classification in the RSMN assay by Lab A ([2]; early Phase 2a only): positive | classification in the RSMN assay by Lab A ([2]; later Phase 2a testing only, expected outcome negative): correctly classified | classification in the RSMN assay by Lab B ([2]; overall call): negative | classification in the RSMN assay by Lab C ([2]; overall call): negative | % MN-BN response in individual experiment(s), Lab C, 48-h protocol [2, 4]: negative results

CCc1cc(C(N)=S)ccn1 [Ethionamide]
% VCC or BN (cytotoxicity thresholds exceeded) ([1]; human): < 40 % VCC or BN | top/maximum dose tested, limited by excessive or strong cytotoxicity ([1]; human): 30–160 µg/cm^2 | % MN-BN response in individual experiment(s), Lab A, 48-h protocol [2]: negative | % MN-BN response in individual experiment(s), Lab B, 48-h protocol [2]: negative | % MN-BN response in individual experiment(s), Lab B, 72-h protocol [2]: negative | % MN-BN response in individual experiment(s), Lab C, 48-h protocol [2]: negative | classification in the RSMN assay by Lab A [2]: negative | classification in the RSMN assay by Lab B [2]: negative | classification in the RSMN assay by Lab C [2]: negative

CC(=O)O[C@H]1C(=O)[C@@]2(C)[C@H]([C@H](OC(=O)c3ccccc3)[C@]3(O)C[C@H](OC(=O)[C@H](O)[C@@H](NC(=O)c4ccccc4)c4ccccc4)C(C)=C1C3(C)C)[C@]1(OC(C)=O)CO[C@@H]1C[C@@H]2O [Taxol]
top/maximum dose tested, limited by excessive or strong cytotoxicity [1, 6]: 1.6 µg/cm^2 | classification in the RSMN assay by Lab C ([2]; overall call): positive | % MN-BN response in individual experiment(s), Lab C, 48-h protocol [2, 4]: clear and dose-dependent increase

O=[N+]([O-])c1ccc(O)cc1 [4-Nitrophenol]
top/maximum dose tested, limited by excessive or strong cytotoxicity [1, 6]: 20–48 µg/cm^2 | classification in the RSMN assay by Lab A ([2]; overall call): negative | classification in the RSMN assay by Lab B ([2]; overall call): negative | classification in the RSMN assay by Lab C ([2]; overall call): negative | classification in the RSMN assay by Lab D ([2]; overall call): negative | % MN-BN response in individual experiment(s), Lab A, 72-h protocol [2, 5]: negative | % MN-BN response in individual experiment(s), Lab C, 72-h protocol [2, 5]: negative | % MN-BN response in individual experiment(s), Lab A, 48-h protocol [2, 4]: negative | % MN-BN response in individual experiment(s), Lab B, 48-h protocol [2, 4]: did not find any evidence for an increase | % MN-BN response in individual experiment(s), Lab C, 48-h protocol [2, 4]: negative | % MN-BN response in individual experiment(s), Lab D, 48-h protocol [2, 4]: did not find any evidence for an increase

COc1cc2c(c(OC)c1OC)-c1ccc(OC)c(=O)cc1[C@@H](NC(C)=O)CC2 [Colchicine]
top/maximum dose tested, limited by excessive or strong cytotoxicity [1, 6]: 0.03 µg/cm^2 | classification in the RSMN assay by Lab A ([2]; overall call): positive | classification in the RSMN assay by Lab C ([2]; overall call): positive | % MN-BN response in individual experiment(s), Lab A, 48-h protocol [2, 4]: highly significant increases | % MN-BN response in individual experiment(s), Lab C, 48-h protocol [2, 4]: highly significant increases

CCOS(C)(=O)=O [Ethyl methanesulfonate (EMS), Ethyl methanesulfonate]
top/maximum dose tested, limited by excessive or strong cytotoxicity [1, 6]: 360 µg/cm^2 | classification in the RSMN assay by Lab A ([2]; overall call): positive | classification in the RSMN assay by Lab C ([2]; overall call): positive | % MN-BN response in individual experiment(s), Lab A, 72-h protocol [2, 5]: significant increase in the % MN-BN at multiple doses | % MN-BN response in individual experiment(s), Lab C, 48-h protocol [2, 4]: clear and dose-dependent increase

O=C(O)Cc1ccccc1Nc1c(Cl)cccc1Cl [Diclofenac]
top/maximum dose tested, limited by excessive or strong cytotoxicity [1, 6]: 50–80 µg/cm^2 | classification in the RSMN assay by Lab A ([2]; overall call): positive | classification in the RSMN assay by Lab B ([2]; overall call): positive | classification in the RSMN assay by Lab D ([2]; overall call): positive | apoptotic cells alongside the increase of micronuclei ([2]; reported by Lab A): strong increase of apoptotic cells | % MN-BN response in individual experiment(s), Lab A, 48-h protocol [2, 4]: significant increases

CCCCCl [N-Butyl chloride]
% MN-BN response in individual experiment(s), Lab A, 72-h protocol [2]: negative results | % MN-BN response in individual experiment(s), Lab B, 48-h protocol [2]: no significant increases | % MN-BN response in individual experiment(s), Lab C, 48-h protocol [2]: no significant increase | % MN-BN response in individual experiment(s), Lab C, 72-h protocol [2]: no significant increase | % MN-BN response in individual experiment(s), Lab D, 48-h protocol [2]: no significant increases | classification in the RSMN assay by Lab A [2]: negative | classification in the RSMN assay by Lab B [2]: negative | classification in the RSMN assay by Lab C [2]: negative | classification in the RSMN assay by Lab D [2]: negative

O=[N+]([O-])c1cccc2ccccc12 [1-Nitronaphthalene]
top/maximum dose tested, limited by excessive or strong cytotoxicity [1, 6]: 50–80 µg/cm^2 | classification in the RSMN assay by Lab A [2]: negative

CCCOC(=O)c1cc(O)c(O)c(O)c1 [Propyl gallate]
top/maximum dose tested, limited by excessive or strong cytotoxicity [1, 6]: 48 µg/cm^2 | % MN-BN response in individual experiment(s), Lab B, 48-h protocol [2]: did not significantly increase | classification in the RSMN assay by Lab B [2]: negative

COS(C)(=O)=O [Methyl methanesulfonate (MMS), Methyl methanesulfonate]
top/maximum dose tested, limited by excessive or strong cytotoxicity [1, 6]: 16 µg/cm^2 | classification in the RSMN assay by Lab B ([2]; overall call): positive

Oc1ccccc1 [Phenol]
% MN-BN response in individual experiment(s), Lab D, 48-h protocol [2]: significant increase in the % MN-BN was observed only at the highest dose tested | classification in the RSMN assay by Lab D [2]: negative

COC(=O)C1=C(C)NC(C)=C(C(=O)OC)C1c1ccccc1[N+](=O)[O-] [Nifedipine]
classification in the RSMN assay by Lab A ([2]; overall call): negative

OC[C@@H](O)[C@@H](O)[C@H](O)[C@H](O)CO [D-Mannitol]
maximum dose tested without exceeding the cytotoxicity thresholds [1, 3]: 1600 µg/cm^2 | classification in the RSMN assay by Lab B ([2]; overall call): negative | classification in the RSMN assay by Lab D ([2]; overall call): negative | % MN-BN response in individual experiment(s), Lab B, 48-h protocol [2, 4]: no significant increase | % MN-BN response in individual experiment(s), Lab D, 48-h protocol [2, 4]: no significant increase

Cc1ccc(N)cc1N [2,4-Diaminotoluene (2,4-DAT), 2,4-Diaminotoluene]
top/maximum dose tested, limited by excessive or strong cytotoxicity [1, 6]: 700 µg/cm^2 | classification in the RSMN assay by Lab A ([2]; overall call): positive | classification in the RSMN assay by Lab B ([2]; overall call): negative | classification in the RSMN assay by Lab D ([2]; overall call): negative | % MN-BN response in individual experiment(s), Lab B, 72-h protocol [2, 5]: negative | % MN-BN response in individual experiment(s), Lab B, 48-h protocol [2, 4]: none of which caused a significant increase | % MN-BN response in individual experiment(s), Lab D, 48-h protocol [2, 4]: negative

O=c1[nH]cc(F)c(=O)[nH]1 [5-Fluorouracil]
% MN-BN response in individual experiment(s), Lab B, 48-h protocol [2]: negative results | % MN-BN response in individual experiment(s), Lab B, 72-h protocol [2]: negative results | classification in the RSMN assay by Lab A [2]: positive | classification in the RSMN assay by Lab B [2]: negative

Oc1cccc(O)c1 [Resorcinol]
% MN-BN response in individual experiment(s), Lab B, 48-h protocol [2]: significant increase in % MN-BN at the highest dose tested | % MN-BN response in individual experiment(s), Lab B, 72-h protocol [2]: did not induce any statistically significant increase | classification in the RSMN assay by Lab B [2]: negative

OCC(Br)CBr (stereo not shown) [2,3-Dibromo-1-propanol]
top/maximum dose tested, limited by excessive or strong cytotoxicity [1, 6]: 500–600 µg/cm^2 | classification in the RSMN assay by Lab A ([2]; overall call): positive

Oc1ccc(Cl)cc1Cl [2,4-Dichlorophenol]
top/maximum dose tested, limited by excessive or strong cytotoxicity [1, 6]: 50 µg/cm^2 | classification in the RSMN assay by Lab A ([2]; overall call): negative | classification in the RSMN assay by Lab D ([2]; overall call): negative | % MN-BN response in individual experiment(s), Lab A, 48-h protocol [2, 4]: no statistically significant increases | % MN-BN response in individual experiment(s), Lab D, 48-h protocol [2, 4]: negative

c1ccc2c(c1)ccc1ccccc12 [Phenanthrene]
top dose, limited by precipitation on the surface of the skin tissues ([1]; lab(s) as stated in the text): 200–400 µg/cm^2 | doses at which precipitation was seen ([1]; second 48-h experiment, Lab A): ≥ 400 µg/cm^2 | % MN-BN response in individual experiment(s), Lab B, 48-h protocol [2]: negative | % MN-BN response in individual experiment(s), Lab B, 72-h protocol [2]: no evidence for an increase | % MN-BN response in individual experiment(s), Lab C, 48-h protocol [2]: negative | % MN-BN response in individual experiment(s), Lab D, 48-h protocol [2]: negative | classification in the RSMN assay by Lab A [2]: positive | classification in the RSMN assay by Lab B [2]: negative | classification in the RSMN assay by Lab C [2]: negative | classification in the RSMN assay by Lab D [2]: negative

COc1cc([C@@H]2c3cc4c(cc3[C@@H](O[C@@H]3O[C@@H]5CO[C@@H](C)O[C@H]5[C@H](O)[C@H]3O)[C@H]3COC(=O)[C@H]23)OCO4)cc(OC)c1O [Etoposide]
top/maximum dose tested, limited by excessive or strong cytotoxicity [1, 6]: 1.6 µg/cm^2

O=C1CN(/N=C/c2ccc([N+](=O)[O-])o2)C(=O)N1 [Nitrofurantoin]
maximum dose tested without exceeding the cytotoxicity thresholds ([1]; human): 1600 µg/cm^2 | top/maximum dose tested, limited by excessive or strong cytotoxicity ([1]; human): 48 µg/cm^2 | classification in the RSMN assay by Lab B [2]: negative

C1CC2OC2CC1C1CO1 (stereo not shown) [4-Vinyl-1-cyclohexene diepoxide]
top/maximum dose tested, limited by excessive or strong cytotoxicity [1, 6]: 64 µg/cm^2 | classification in the RSMN assay by Lab A ([2]; overall call): positive | classification in the RSMN assay by Lab B ([2]; overall call): positive | classification in the RSMN assay by Lab C ([2]; overall call): positive | % MN-BN response in individual experiment(s), Lab C, 72-h protocol [2, 5]: equivocal response | % MN-BN response in individual experiment(s), Lab B, 48-h protocol [2, 4]: significant increase | % MN-BN response in individual experiment(s), Lab C, 48-h protocol [2, 4]: negative | % MN-BN response in individual experiment(s), Lab D, 48-h protocol [2, 4]: negative

Oc1cccc2cccnc12 [8-Hydroxyquinoline]
top/maximum dose tested, limited by excessive or strong cytotoxicity ([1]; human): 48 µg/cm^2 | classification in the RSMN assay by Lab D [2]: negative

Cc1c(N)cccc1N [2,6-Diaminotoluene (2,6-DAT), 2,6-Diaminotoluene]
top/maximum dose tested, limited by excessive or strong cytotoxicity [1, 6]: 350 µg/cm^2 | classification in the RSMN assay by Lab D [2]: negative

COc1cc(/C=C/C(=O)CC(=O)/C=C/c2ccc(O)c(OC)c2)ccc1O [Curcumin]
top/maximum dose tested, limited by excessive or strong cytotoxicity [1, 6]: 160 µg/cm^2 | classification in the RSMN assay by Lab B ([2]; overall call): positive

CC1(C)S[C@@H]2[C@H](NC(=O)[C@H](N)c3ccccc3)C(=O)N2[C@H]1C(=O)O [Ampicillin sodium salt]
maximum dose tested without exceeding the cytotoxicity thresholds [1, 3]: 1600 µg/cm^2 | classification in the RSMN assay by Lab A ([2]; overall call): negative | % MN-BN response in individual experiment(s), Lab A, 48-h protocol [2, 4]: no significant increases
